Test results published in patent publication US11286258B2, “Nature-inspired anticancer and antibacterial motifs and pharmaceutical composition thereof” (University of Sharjah, priority 2020, dated 2022).
Converted amounts (≈) assume the structure as drawn.

Experiments:
[1] = test system: HCT-116; test: MTT cell viability, HCT-116; format: cell-based; conditions: Homo sapiens, colon cancer, 48 h of drug treatment, average of three experiments
Source text: (§1) Cell culture: In this study five different cancer cell lines were used, human lung carcinoma (A549), human breast adenoma (MCF-7), Cervical carcinoma (Hela), hepatocellular carcinoma (Hep3B), and colorectal adenocarcinoma (HCT-116). These cells were obtained from the European Collection of Cell Cultures (ECACC, UK). Hep3B cells were maintained in Dulbecco's Modified Eagle Medium (DMEM: Sigma-Aldrich), and the four other cell lines were maintained in Roswell Park Memorial Institute medium (RPMI, Sigma-Aldrich, St. Louis, Mo., USA), which was supplemented with 10% fetal bovine serum (FBS, Sigma-Aldrich) and 1% penicillin/streptomycin (Sigma-Aldrich). Cells were incubated all the time at 37° C. in a humidified atmosphere of 5% CO2. Cell viability studies: Cell viability was assessed using the MTT assay as described before. In brief, all cancer cell lines were seeded at a density of 4×10^4/well in 96 well flat-bottom plates. After 24 h from seeding, cells were treated with the synthesized compounds and left for an incubation period of 48 h. Upon reaching the indicated time point, the media was removed and replaced with 200 μL fresh media containing 0.5 mg/mL of MTT tetrazolium dye (Sigma-Aldrich). Cells were then incubated with MTT solution for 2 h at 37° C. The resultant formazan crystals were dissolved in 200 μl/well of DMSO and absorbance was measured at 570 nm using a microplate reader (Thermo Scientific).

[2] = test system: HELA; test: MTT cell viability, HELA; format: cell-based; conditions: Homo sapiens, cervical cancer, 48 h of drug treatment, average of three experiments
Source text: as §1

[3] = test system: A549; test: MTT cell viability, A549; format: cell-based; conditions: Homo sapiens, lung cancer, 48 h of drug treatment, average of three experiments
Source text: as §1

[4] = test system: HEP3B; test: MTT cell viability, HEP3B; format: cell-based; conditions: Homo sapiens, liver cancer, 48 h of drug treatment, average of three experiments
Source text: as §1

[5] = test system: MCF-7; test: MTT cell viability, MCF-7; format: cell-based; conditions: Homo sapiens, MCF7; breast cancer; 48 h of drug treatment; average of three experiments
Source text: as §1

[6] = test system: E. coli ATCC25922; test: MIC broth microdilution, E. coli ATCC25922; format: cell-based, Escherichia coli; conditions: not MDR, overnight incubation; for MIC: Escherichia coli, ATCC25922
Method: (§2) Antibacterial activity: The compounds were tested for the minimum inhibitory concentrations (MIC), which is the lowest concentration of a chemical required to inhibit visible microbial growth following overnight incubation. MIC values were determined using broth microdilution method according to the Clinical and Laboratory Standards Institute guidelines (CLSI, 2015, M07-A10). Mueller-Hinton broth was used as a culture medium in all the experiments. Exponentially growing bacterial cells were prepared in Mueller-Hinton broth at a concentration of approximately 5×10^5 CFU/mL. Two-fold serial dilutions of the test compound (8 concentrations ranged between 100-0.78 μg/mL) were tested. […] In each experiment, solvent (DMSO) was used as a negative control, un-treated control (composing of bacteria in Mueller-Hinton broth) was used as a growth control, blank (culture media alone) was used as sterility control. The 96-well microplate with the test compounds was incubated overnight at 37° C. Turbidity in wells indicated bacterial growth.
(§3) The compounds were tested on six MDR Gram-positive bacteria including three clinical isolates of methicillin-resistant Staphylococcus aureus (MRSA-1, MRSA-2 and MRSA-3) and three reference MRSA strains (ATCC33591, ATCC33592 and ATCC700699). They were also tested on three MDR Gram-negative bacteria including New Delhi metallo-beta-lactamase (NDM-1) positive, carbapenem-resistant E. coli (ATCC BAA2469), extended-spectrum beta-lactamase (ESBL) producing, colistin-resistant E. coli (CDC-AR-0346) and carbapenem-resistant Acinetobacter baumannii (ATCC BAA1605), in addition to two non-MDR bacteria from the same species, namely E. coli (ATCC 25922) Acinetobacter baumannii (ATCC 19606).

[7] = test system: E. coli ATCC BAA2469 (NDM-1 carbapenem-resistant); test: MIC broth microdilution, E. coli ATCC BAA2469; format: cell-based, Escherichia coli; conditions: overnight incubation; for MIC: Escherichia coli, ATCCBAA2469, MDR
Method: as §2, §3

[8] = test system: E. coli CDC-AR-0346 (ESBL, colistin resistant); test: MIC broth microdilution, E. coli CDC-AR-0346; format: cell-based, Escherichia coli; conditions: MDR, overnight incubation; for MIC: Escherichia coli
Method: as §2, §3

[9] = test system: Acinetobacter baumannii ATCC 19606; test: MIC broth microdilution, A. baumannii ATCC 19606; format: cell-based; conditions: not MDR, overnight incubation; for MIC: Acinetobacter baumannii, ATCC19606
Method: as §2, §3

[10] = test system: Acinetobacter baumannii ATCC BAA1605 (carbapenem-resistant); test: MIC broth microdilution, A. baumannii ATCC BAA1605; format: cell-based; conditions: overnight incubation; for MIC: Acinetobacter baumannii, ATCCBAA1605, MDR; for MIC Acinetobacter baumannii ATCC BAA1605 (carbapenem-resistant): MDR
Method: as §2, §3

[11] = test system: MRSA-1 (clinical isolate); test: MIC broth microdilution, MRSA-1; format: cell-based, Staphylococcus aureus; conditions: Staphylococcus aureus, MRSA; overnight incubation, Mueller-Hinton broth; read-out: MIC MRSA-1 (clinical isolate)
Method: as §2, §3

[12] = test system: MRSA-2 (clinical isolate); test: MIC broth microdilution, MRSA-2; format: cell-based, Staphylococcus aureus; conditions: Staphylococcus aureus, MRSA; overnight incubation, Mueller-Hinton broth; read-out: MIC MRSA-2 (clinical isolate)
Method: as §2, §3

[13] = test system: MRSA-3 (clinical isolate); test: MIC broth microdilution, MRSA-3; format: cell-based, Staphylococcus aureus; conditions: Staphylococcus aureus, MRSA; overnight incubation, Mueller-Hinton broth; read-out: MIC MRSA-3 (clinical isolate)
Method: as §2, §3

[14] = test system: MRSA-ATCC33591; test: MIC broth microdilution, MRSA ATCC33591; format: cell-based, Staphylococcus aureus; conditions: Staphylococcus aureus; overnight incubation, Mueller-Hinton broth; read-out: MIC MRSA-ATCC33591
Method: as §2, §3

[15] = test system: MRSA-ATCC33592; test: MIC broth microdilution, MRSA ATCC33592; format: cell-based, Staphylococcus aureus; conditions: Staphylococcus aureus; overnight incubation, Mueller-Hinton broth; read-out: MIC MRSA-ATCC33592
Method: as §2, §3

[16] = test system: MRSA-ATCC700699 (VISA); test: MIC broth microdilution, MRSA ATCC700699 (VISA); format: cell-based, Staphylococcus aureus; conditions: Staphylococcus aureus; strain intermediately resistant to vancomycin; overnight incubation; read-out: MIC MRSA-ATCC700699 (VISA)
Method: as §2, §3

In the case of `Fc1ccc(N/N=C2\C=C[C@@]3(CC2)CC[C@@H]2NCCc4c2n3c2ccccc42)cc1` [Compound 1b], the IC50 [1] is reported as 6.43 ± 0.03 µM, the IC50 [2] is reported as > 10 µM and the IC50 [3] is reported as 10.25 ± 0.08 µM. The IC50 [4] was 8 ± 0.07 µM and the IC50 [5] was 6.22 ± 0.16 µM.
`CO/N=C(\C(=O)N[C@@H]1C(=O)N2C(C(=O)O)=C(CSc3nc(=O)c(=O)[nH]n3C)CS[C@H]12)c1csc(N)n1` [Ceftriaxone] was tested, and the MIC [6] was 0.03 µg/mL (≈ 0.0541 µM), the MIC [7] was 500 µg/mL (≈ 902 µM) and the MIC [8] was > 1000 µg/mL. The MIC [9] was 20 µg/mL (≈ 36.1 µM), the MIC [10] was ≥ 1000 µg/mL and the “MIC Acinetobacter baumannii ATCC BAA1605 (carbapenem-resistant)” value [10] was >1000 µg/mL.
With Colistin the “MIC E. coli ATCC25922” value [6] was 0.2 µg/mL, the “MIC E. coli ATCC BAA2469 (NDM-1 carbapenem-resistant)” value ([7]; MDR) was 1.25 µg/mL and the “MIC E. coli CDC-AR-0346 (ESBL, colistin resistant)” value [8] was 6.25 µg/mL. For the same compound, the “MIC Acinetobacter baumannii ATCC 19606” value [9] was 1.25 µg/mL and the “MIC Acinetobacter baumannii ATCC BAA1605 (carbapenem-resistant)” value [10] was 1.25 µg/mL.
For `C[C@@H](O)[C@H]1C(=O)N2C(C(=O)O)=C(S[C@@H]3CN[C@H](C(=O)N(C)C)C3)[C@H](C)[C@H]12` [Meropenem], the MIC [6] was < 0.02 µg/mL, the MIC [7] was 25 µg/mL (≈ 65.2 µM) and the MIC [8] was < 0.2 µg/mL. For the same compound, the MIC [9] was 0.6 µg/mL (≈ 1.56 µM) and the MIC [10] was 12.5 µg/mL (≈ 32.6 µM).
`FC(F)(F)c1ccc(N/N=C2\C=C[C@@]3(CC2)CC[C@@H]2NCCc4c2n3c2ccc(OCc3ccccc3)cc42)cc1` [Compound 1l] showed an MIC [11] of 1.56 µg/mL (≈ 2.8 µM), an MIC [12] of 3.12 µg/mL (≈ 5.61 µM) and an MIC [13] of 3.12 µg/mL (≈ 5.61 µM). The MIC [14] was 3.12 µg/mL (≈ 5.61 µM), the MIC [15] was 3.12 µg/mL (≈ 5.61 µM) and the MIC [16] was 3.12 µg/mL (≈ 5.61 µM).
In the case of `COC(=O)[C@H]1Cc2c3n(c4ccccc24)[C@@]2(C=C/C(=N\Nc4ccc(C(F)(F)F)cc4)CC2)CC[C@@H]3N1` [Compound 1n], the MIC [11] is reported as 3.12 µg/mL (≈ 6.14 µM), the MIC [12] is reported as 3.12 µg/mL (≈ 6.14 µM) and the MIC [13] is reported as 3.12 µg/mL (≈ 6.14 µM). For the same compound, the MIC [14] was 6.25 µg/mL (≈ 12.3 µM), the MIC [15] was 6.25 µg/mL (≈ 12.3 µM) and the MIC [16] was 6.25 µg/mL (≈ 12.3 µM).
